Laboratory results from patent US10238688B2, “Combination therapies for bladder cancer” (GENEDIA BIOTECH CO. LTD., priority 2015, dated 2019).

Columns and labels:
[1] = system: EJ; assay: MTT cell survival / IC50, EJ cells; assay type: cell-based, human; conditions: for Cell survival (%): Table S3, ng/ml: Pi 40, Pa 160, EH 250, Ci 1500, Mi 200, 1=Ci/Mi, 2=EH/Ci/Mi, 3=Pa/Ci/Mi, 4=Pi/Ci/Mi; for Single drug 4X Cell Survival (%): ng/ml: EH 1000, Ci 6000, Mi 800, Pi 160, Pa 640, Ge 20, EH/Ci/Mi regimen
Experimental: (§1) The clinical grade of the chemotherapeutics (NCI Dictionary of Cancer Terms) was provided by the First Affiliated Hospital of Harbin Medical University: Pirarubicin (Pi, Wanle, Shenzhen), Paclitaxel (Pa, Taiji, Sichuan), Adriamycin (Ad, Pfizer, Jiangsu), Epirubicin Hydrochloride (EH, Haizheng, Zhejiang), Hydroxycamptothecin (Hy, Lishizhen, Hubei), Cisplatin (Ci, Haosen, Jiangsu), Gemcitabine (Ge, Haosen, Jiangsu) and Mitomycin (Mi, Haizheng, Zhejiang). The drug induced cell death was determined by a thiazolyl […] (MTT, 490 nm reading) based cell proliferation assay in the cultured cells following treatment by various concentrations of drugs for 72 hours. The relative chemoresistance to each drug of all cell lines was calculated with the lowest IC50 as a reference. The overall chemoresistance of each cell line was described as “chemoresistance index”, the numerator of the total relative IC50 to all the drugs over the number of drugs to rank the overall resistance state of each cell line to the six chemotherapeutics collectively.
(§2) The relative IC50 (fold) of each drug of all nine cell lines was normalized to the lowest IC50 in the most sensitive cell line (FIG. 2G), to describe the single drug resistance of cell lines. The overall chemoresistance of each cell line, a “chemoresistance index” (the numerator of the total relative IC50 over the number of drugs) (FIG. 2G) were calculated to rank the overall resistance state of each cell line to this six chemotherapeutics.
(§3) Twenty six-drug combinations at the indicated doses were initially generated through a random number generator (using MATLAB MathWorks©, Natick, Mass., U.S.) (The upper half of Table 1). The cell survival (% over the not drug control) of treated cells was determined and then used for a calculation of the average cumulative cell survival (%, ACS: the sum of cell survival (%) per combination divided by the number of cell lines tested). ACS<30% was used to separate the effective from the not-effective combinations.

[2] = system: UM-UC-3; assay: MTT cell survival / IC50, UM-UC-3 cells; assay type: cell-based, human; conditions: for Cell survival (%) / Single drug 4X Cell Survival (%): UM-UC-3; for Cell survival (%): Table S3, ng/ml: Pi 40, Pa 160, EH 250, Ci 1500, Mi 200, 1=Ci/Mi, 2=EH/Ci/Mi, 3=Pa/Ci/Mi, 4=Pi/Ci/Mi; for Single drug 4X Cell Survival (%): ng/ml: EH 1000, Ci 6000, Mi 800, Pi 160, Pa 640, Ge 20, EH/Ci/Mi regimen; for ACS (%): UM-UC-3 cells, Table 4 (B); for Cell survival 72 hours: Um-Uc-3 cells, Table 4 (A)
Experimental: as §1, §2, §3

[3] = system: bladder cancer cell lines; assay: Average cumulative cell survival (ACS) over the panel of cell lines tested; assay type: cell-based, human; conditions: for ACS (%): eight cell lines, Table S3, ng/ml: Pi 40, Pa 160, EH 250, Ci 1500, Mi 200, 1=Ci/Mi, 2=EH/Ci/Mi, 3=Pa/Ci/Mi, 4=Pi/Ci/Mi; for ACS: four-fold dosed component drugs alone: Ci 6000 ng/mL, Mi 800 ng/mL, EH 1000 ng/mL (Table S4); for ACS (%) for cancer cells: seven cancer cell lines, ng/ml: EH 1000, Ci 6000, Mi 800, Pi 160, Pa 640, Ge 20, EH/Ci/Mi regimen
Experimental: as §1
The “Differential Evolution” algorithm guided experimental optimization (DE) consisted of three iterative operations: generating drug combinations of experimental testing, acquiring the efficacy of the generated drug combinations with biological assays and recalculating further improved drug combinations using a feedback search algorithm. This example first tested twenty drug combinations at randomized doses. These drug combinations were generated from a random integer matrix generator, coded in MATLAB™ language. These twenty drug combinations were then experimentally tested for cancer cell cytotoxicity. The experimental data were then subjected to calculation with a DE algorithm for new drug combinations based on three major mathematical calculations: “Mutation”, “Crossover” and “Selection”. The equations for each step can be found in the main test. The equations for each step are coded in MATLAB™ language.
as §3, with “combinations. Nine of the twenty combinations tested in the 1st round of iteration fell into this category (the lower half of Table 1).” for “combinations.”

[4] = system: DNA Damage response pathway; assay: Cignal Finder dual-luciferase pathway reporter, DNA Damage response (5637, Biu87, UM-UC-3, H-bc, SV-HUC-1); assay type: cell-based, human; parameters: key to Relative activity, DNA Damage reporter: firefly/renilla ratio, background (negative control) subtracted; conditions: for Relative activity, DNA Damage reporter: luc/Renluc relative to negative control reporter, single drug at 4 folds vs EH/Ci/Mi combination
Experimental: (§4) The pathway analysis was performed with Qiagen's Cignal Finder Pathway Reporter Array systems according to the manufacturer's instructions. The pathway-focused dual-luciferase reporter construct was a mixture of an inducible transcription factor responsive firefly luciferase reporter and constitutively expressing renilla construct. Transcriptional response element (TRE) sequence response elements to each specific transcriptional factor triggered by the different signaling pathways are positioned before the TATA box of firefly luciferase reporter gene. The extent of activity of the reporter reflects the level of activity of the particular signaling pathway. CMV controlled renilla expression vector is co-transfected into the cell as an internal control. Non-inducible reporter construct that lacks the transcriptional factor binding sequence and could not be induced by any transcription factors is used as a negative control. Cells transfected with CMV directed firefly luciferase reporter gene serve as a positive control. Briefly, cells seeded in 6-well plates were transfected with Cignal finder pathway arrays according to the manufacturer's instructions (Qiagen). Then cells were seeded onto 96-well plates. […] After 6 h of incubation with the different drugs at 37° C., cells were lysed and a dual luciferase assay (for firefly and renilla luciferase) was performed using a PromegaGloMax 20/20 illuminometer. The firefly luciferase activities were normalized over the renilla luciferase activities after background activity determined by luciferase activities of negative controls was subtracted. A triple test of cell survival under these drug doses was also performed by MTT assay following 18 h incubation at 37° C. […]

[5] = system: Myc/Max pathway; assay: Cignal Finder dual-luciferase pathway reporter, Myc/Max; assay type: cell-based, human; conditions: for Relative activity, Myc/Max reporter: luc/Renluc relative to negative control reporter, single drug at 4 folds vs EH/Ci/Mi combination
Experimental: as §4

[6] = system: nine cancer-associated signaling pathways; assay: Pearson correlation of collective drug-triggered pathway activities (single drug versus EH/Ci/Mi regimen)
Excerpt: To calculate the correlation coefficients between the two cell lines, the R language statistics function “cor{stats}” was used to generate the correlation matrix between multiple cell lines.
This example then determined the correlation coefficient between the overall activity of these nine pathways and the chemoresistance state of these five cell lines. […] The overall state of activity of these pathways in each cell line are summarized (FIG. 4E) and the correlation coefficient of each pair of cell lines is calculated (FIG. 4F).

SMILES | Cell survival (%) [1] [%] | Single drug 4X Cell Survival (%) [1] [%] | Cell survival (%) [2] [%] | Single drug 4X Cell Survival (%) [2] [%] | ACS (%) [2] [%] | Cell survival 72 hours [2] [%] | ACS (%) [3] [%] | ACS [3] [%] | ACS (%) for cancer cells [3] [%] | relative drug trigged pathway activity over the no-drug level, DNA Damage ([4]; 5637 cells) [fold] | Relative activity, DNA Damage reporter ([4]; 5637 cells) | digitalized pathway activity, DNA Damage ([4]; Biu87 cells) | relative drug trigged pathway activity over the no-drug level, DNA Damage ([4]; Biu87 cells) [fold] | Relative activity, DNA Damage reporter ([4]; Biu87 cells) | relative drug trigged pathway activity over the no-drug level, DNA Damage ([4]; H-bc cells) [fold] | Relative activity, DNA Damage reporter ([4]; H-bc cells) | relative drug trigged pathway activity over the no-drug level, DNA Damage ([4]; SV-HUC-1 cells) [fold] | Relative activity, DNA Damage reporter ([4]; SV-HUC-1 cells) | Relative activity, DNA Damage reporter ([4]; UM-UC-3 cells) | relative drug trigged pathway activity over the no-drug level, DNA Damage ([4]; Um-Uc-3 cells) [fold] | also measured
N.N.[Cl][Pt][Cl] [Ci, (SP-4-2)-diamminedichloroplatinum(II)] | 32.34 | 22.36 | 14.71 | 9.33 | 9.33 | 9.33 | 22.9 | 16.60 | 9.11 | 2.17 | 0.48 | 0 (null (0) if neither of the above holds) | 0.63 | 0.94 | 1.69 | 4.19 | 1.54 | 3.70 | 2.38 | 0.68 | digitalized pathway activity, DNA Damage ([4]; UM-UC-3 cells): 0 (null (0) if neither of the above holds); digitalized pathway activity, Myc/Max ([5]; 5637 cells): 0 (null (0) if neither of the above holds); relative drug trigged pathway activity over the no-drug level, Myc/Max ([5]; 5637 cells): 1.05 fold; Relative activity, Myc/Max reporter ([5]; 5637 cells): 11.64; digitalized pathway activity, Myc/Max ([5]; Biu87 cells): 0 (null (0) if neither of the above holds); relative drug trigged pathway activity over the no-drug level, Myc/Max ([5]; Biu87 cells): 0.56 fold; Relative activity, Myc/Max reporter ([5]; Biu87 cells): 4.60; digitalized pathway activity, Myc/Max ([5]; H-bc cells): 0 (null (0) if neither of the above holds); relative drug trigged pathway activity over the no-drug level, Myc/Max ([5]; H-bc cells): 1.03 fold; Relative activity, Myc/Max reporter ([5]; H-bc cells): 50.23; digitalized pathway activity, Myc/Max ([5]; SV-HUC-1 cells): 0 (null (0) if neither of the above holds); relative drug trigged pathway activity over the no-drug level, Myc/Max ([5]; SV-HUC-1 cells): 1 fold; Relative activity, Myc/Max reporter ([5]; SV-HUC-1 cells): 109.70; Relative activity, Myc/Max reporter ([5]; UM-UC-3 cells): 24.42; relative drug trigged pathway activity over the no-drug level, Myc/Max ([5]; Um-Uc-3 cells): 0.42 fold; Correlation coefficients versus EH/Ci/Mi ([6]; 5637 cells): 0.9177; Correlation coefficients versus EH/Ci/Mi ([6]; Biu87 cells): 0.3273; Correlation coefficients versus EH/Ci/Mi ([6]; H-bc cells): 0.6934; Correlation coefficients versus EH/Ci/Mi ([6]; SV-HUC-1 cells): 1; Correlation coefficients versus EH/Ci/Mi ([6]; UmUc3 cells): −0.7559
COc1cccc2c1C(=O)c1c(O)c3c(c(O)c1C2=O)C[C@@](O)(C(=O)CO)C[C@@H]3[C@@H]1C[C@H](N)[C@@H](O)[C@H](C)O1 [EH, (8R,10S)-10-((2S,4S,5R,6S)-4-amino-5-hydroxy-6-methyltetrahydro-2H-pyran-2-yl)-6,8,11-trihydroxy-8-(2-hydroxyacetyl)-1-methoxy-7,8,9,10-tetrahydrotetracene-5,12-dione] | 56.55 | 38.46 | 43.54 | 25.19 | 25.19 | 25.19 | 39.75 | 9.11 | 16.60 | 3.42 | 0.75 | 0 (null (0) if neither of the above holds) | 1.04 | 1.58 | 6.13 | 3.99 | 2.5 | 6.00 | 5.96 | 1.71 | relative drug trigged pathway activity over the no-drug level, Myc/Max ([5]; 5637 cells): 1.5 fold; Relative activity, Myc/Max reporter ([5]; 5637 cells): 16.61; relative drug trigged pathway activity over the no-drug level, Myc/Max ([5]; Biu87 cells): 1.66 fold; Relative activity, Myc/Max reporter ([5]; Biu87 cells): 13.61; digitalized pathway activity, Myc/Max ([5]; H-bc cells): 0 (null (0) if neither of the above holds); relative drug trigged pathway activity over the no-drug level, Myc/Max ([5]; H-bc cells): 1.37 fold; Relative activity, Myc/Max reporter ([5]; H-bc cells): 17.62; digitalized pathway activity, Myc/Max ([5]; SV-HUC-1 cells): 0 (null (0) if neither of the above holds); relative drug trigged pathway activity over the no-drug level, Myc/Max ([5]; SV-HUC-1 cells): 1.13 fold; Relative activity, Myc/Max reporter ([5]; SV-HUC-1 cells): 125.00; Relative activity, Myc/Max reporter ([5]; UM-UC-3 cells): 25.48; relative drug trigged pathway activity over the no-drug level, Myc/Max ([5]; Um-Uc-3 cells): 0.44 fold; Correlation coefficients versus EH/Ci/Mi ([6]; 5637 cells): 0.9177; Correlation coefficients versus EH/Ci/Mi ([6]; Biu87 cells): 0.982; Correlation coefficients versus EH/Ci/Mi ([6]; H-bc cells): 0.9707; Correlation coefficients versus EH/Ci/Mi ([6]; SV-HUC-1 cells): 0.9449; Correlation coefficients versus EH/Ci/Mi ([6]; UmUc3 cells): 0.3712
